Reference: patent US7169753B2, “Chlorophyll and bacteriochlorophyll esters, their preparation and pharmaceutical compositions comprising them” (Yeda Research and Development Co. Ltd., priority 1999, dated 2007)

Test system: M2R melanoma cells
Test: Photodynamic activity in monolayer cell culture (phototoxicity to melanoma cells)
Assay type: cell-based
Details: mouse M2R melanoma cells, 4 hrs dark incubation, irradiation 600–1300 nm; for phototoxicity to M2R melanoma cells (result in words): viability by [3H]-thymidine incorporation, formed aggregates in the liposomes
Protocol: Liposome Preparation L-α-Dipalmitoylphosphatidylcholine (DPPC) liposomes as carrier system for pigments insoluble in water were prepared according to Toledano, 1998 and to Cuomo et al. 1990. […] (≅130 μg) of the photosensitizer and 5 mg DPPC were dissolved in 400 μl chloroform. Onto this were layered 250 μl H2O and 250 μl phosphate buffer (pH=7,2; 1,5 mM KH2PO4; 7,6 mM Na2HPO4; 0,15 M NaCl). The chloroform was removed within 5 min with a rapid stream of argon, while the mixture was sonicated and maintained at 45° C. Sonication was continued for another 20 min and the liposomes loaded with pigment were recovered in the supernatant after centrifugation (16 000×g, 10 min). The liposome concentration was determined photometrically at 750 nm (according to Grossweiner and Grossweiner, 1982). Photodynamic Activity in Monolayer Cell Culture M2R melanoma cells (mice) were cultivated as monolayers in 96-well microtiter-plates in DMEM (Dulbecco's modified Eagle's medium)/F12 1/1 (v/v) at 37° C. in a moist atmosphere containing 8% CO2. The medium (pH 7.4) was supplemented with HEPES buffer (25 mM), fetal-bovine-serum (FBS) (10%), glutamine (2 mM), penicillin (0.06 mg/ml) and streptomycin (0.1 mg/ml). Within 24 hrs, the cell density increased from 1×10^4 to 2×10^4 cell/100 μl. Increasing amounts of the liposome preparation containing the BChl-derivative were added to the cells. (Pd-BPheid-ser or Pd-BPheid-Nglc were added as ethanolic solution (10^−4 M) such that the maximum concentration of ethanol was <1%). The cells were first kept in the dark for 4 hrs, washed with 100 μl of the medium, treated with 100 μl of fresh medium, and then irradiated from below through the bottom of the plates with a russian BS LS3-PDT lamp, fitted with a filter (600–1300 nm). A light-dose of 10 mW x s x cm^−2 was provided during an irradiation time of […]. After an additional 24 h in the dark at 37° C., cell viability was determined by microscopic inspection (cell size and shape) and via [^3H]-thymidine incorporation into the DNA (Chen et al. 1988). […]

Substance	LD90 (phototoxicity) (viability by [3H]-thymidine incorporation after 24 h, sensitizers in DPPC liposomes (Pd-BPheid-ser as ethanolic solution))	phototoxicity to M2R melanoma cells (result in words)
13^3-tert-butyl-benzyl-Pd-bacteriopheophorbide-a-17^3-methyl ester [tbb-Pd-Bpheid-me]	1.1 µM	
13^3-tert.-butyl-benzyl-Pd-bacteriopheophorbide-a-17^3-tert-butyl-benzyl ester [tbb-Pd-BPheid-tbb]		ineffective
Pd-bacteriopheophorbide a-17^3-N-glucosamide [Pd-BPheid-Nglc]		ineffective
